Test results from patent US10406227B2, “Photoactivated molecules for light-induced modulation of the activity of electrically excitable cells and methods of using same” (University of Southern California, priority 2012, dated 2019).

What was measured:
[1] = test system: primary cultured mouse chromaffin cells; experiment: Imaging RubpyC17 in live cells (membrane luminescence); type: cell-based
Procedure: Cells were imaged at 1-3 days after plating. The glass-bottomed chambers with adherent cells were washed twice with PBS and then filled with standard extracellular solution consisting of 140 mM NaCl, 2.8 mM KCl, 10 mM HEPES, 1 mM MgCl2, 2 mM CaCl2, and 10 mM glucose, pH adjusted to 7.2-7.4 and osmolarity adjusted to 290-310 mOsm. The chamber was then mounted on an Olympus IX70 inverted microscope stage for imaging, using a Cascade 512B EMCCD camera, operated by Metamorph software. Initial imaging was done with cells in extracellular solution without RubpyC17, first under brightfield to evaluate cell health and morphology, then under widefield argon ion laser illumination at 488 nm (Coherent, Innova 90-5, Santa Clara, Calif.), to evaluate autofluorescence. Next, the extracellular solution was removed and replaced with extracellular solution containing the RubpyC17 compound (10 μM in ≤0.01% DMSO, final concentrations). Cell images were then acquired with illumination at 488 nm (collected with a long-pass red emission filter). For electrophysiological experiments, RubpyC17 compound was added to the extracellular solution (2-10 μM in ≤0.01% DMSO, final concentrations as indicated) and cells were incubated for 1.5-45 min, as indicated, then washed with extracellular solution without RubpyC17. Some chromaffin cells were also exposed continuously to 490-900 nM RubpyC17-containing extracellular solution.
Illustrated here are rat insulinoma INS cells (FIG. 1C, top), human embryonic kidney (HEK293T) cells (FIG. 1C, middle), and primary cultured mouse chromaffin cells (FIG. 1C, bottom). […] All cell types preserved morphology for at least 10 minutes. […] One embodiment of the possible light-induced electron transfer is depicted in FIG. 1D.

INS and HEK293T cells = experiment: Time course of light-induced membrane potential change in single cells (patch clamp); type: cell-based
Procedure: Membrane potential was monitored using whole cell patch clamp in current-clamp mode. Cultured cells (INS and HEK293) were plated on a glass-bottomed culture dishes 1-3 days prior to recording. Cells were incubated in standard extracellular solution with or without 10 μM RubpyC17 compound for approximately 1.5-2 minutes, then washed and incubated with standard extracellular solution without additional supplementation, or with 2-5 mM ascorbate, 100 μM sodium ferrocyanide, or 100-200 μM potassium ferricyanide, as indicated. The chamber was transferred to the microscope stage. Extracellular solution consisted of 140 mM NaCl, 2.8 mM KCl, 10 mM HEPES, 1 mM MgCl2, 2 mM CaCl2, 10 mM glucose, pH adjusted to 7.3, and osmolarity adjusted to 300-310. Conventional whole-cell patch clamp recordings were performed with an EPC-9 amplifier and Pulse software (HEKA Electronics). Pipette electrodes of 1.8-3.5 Mohm were fire polished before use. Intracellular solution consisted of: 145 mM KCl, 10 mM NaCl, 1 mM MgCl2, 1 mM EGTA, 2 mM ATP, 0.3 mM GTP and 10 mM HEPES, pH adjusted to 7.3 and osmolarity adjusted to 290-300 mOsm. To monitor changes in membrane voltage/potential, cells were patch clamped in current-clamp mode. Access resistances were in the range of 3-8 Mohm. Using Pulse, membrane potentials were recorded before, during and after illumination by the argon ion laser at 488 nm with an irradiance value of 0.458 mE s^−1 m^−2 or by a xenon lamp source through a 470/40 nm bandpass excitation filter with an irradiance value of 0.480 mE s^−1 m^−2. The duration of illumination varied and the timing is indicated by bars on the figures.
It was discovered that luminescent cells undergo depolarization when illuminated for 25 seconds or longer when reductants (e.g., ascorbate) are present or for 10 seconds or longer when oxidants (e.g., ferricyanide) are present (FIG. 2A). Other oxidants or reductants are used in several embodiments, such as those that are, normally present (or biologically compatible) in the environment of a certain target tissue. In several embodiments, it is possible that light-induced depolarization or hyperpolarization amplitude or rate is controlled by varying illumination time or intensity.
To reach a maximum effect, the light-triggered depolarization in RubpyC17-treated cells requires on the order of 30 seconds of continuous illumination at 0.46-0.48 mE s−1 m2 (FIGS. 2B-F) The time course observed is dependent on several factors, and may be greater or lesser during in vivo applications. One, it is related to the probability of photon absorption per unit time by membrane-associated RubpyC17, which depends on the concentration of RubpyC17, the partitioning into the membrane, and the photon flux. […]

chromaffin cells = experiment: Voltage-clamp current-voltage relationship and steady-state activation before and during light; type: cell-based, mouse; conditions: before vs during light illumination
Text: FIGS. 5A-5H depict data from various experiments related to characteristics of RubpyC17-loaded cells. […] Inset images shown to the right of trace confirmed proper integration of RubpyC17 in patched cells. FIGS. 5C-5E show the light-induced action potential firing in chromaffin cells was not due to biophysical changes in voltage-gated ion channels as there were no significant changes in current-voltage relationships (C-D) nor in steady-state activation curve (E) in RubpyC17-loaded chromaffin cells before (open circle) or during ([…]) light illumination. […] Peak inward currents from each stimulation jump were plotted against corresponding stimulating voltages (n=6). […] Data from representative cell is shown (n=5). […] Currents resulting from capacitor-like behavior of chromaffin cell membranes during hyperpolarizing jumps to −85 mV from a resting membrane potential of −80 mV were recorded 5 min following giga-seal formation for amphoterecin B (bottom trace) or 10 min following giga-seal formation for RubpyC17 (top trace).
To examine whether light-activated RubpyC17 can directly interact and open or block endogenous ion channels, HEK293T cells were preincubated with RubpyC17, and patch-clamped in a voltage-clamp configuration. Voltage-clamp configuration allowed the cells to be clamped at a potential where most voltage-gated ion channels are closed (approximately −80 mV). […]

In the case of [Ru(bpy)2(bpy-C17)](PF6)2 [RubpyC17], the “time cell morphology preserved” value ([1]; 10 μM RubpyC17) is reported as “at least 10 minutes”, the “incorporation into plasma membrane (membrane-localized luminescence)” value ([1]; 10 μM in bath, 488 nm excitation) is reported as “rapidly and stably incorporates into mammalian cell membranes” and the “membrane luminescence after removal from bath solution” value ([1]; 10 minutes after RubpyC17 removal) is reported as “still observed”. For the same substance, the “continuous illumination to reach maximum depolarization” value (INS and HEK293T cells; 0.46-0.48 mE s−1 m2) was roughly 30 s, the “illumination duration giving membrane potential change” value (INS and HEK293T cells; oxidants (e.g., ferricyanide) present) was no less than 10 s and the “reversibility of light-induced depolarization” value (INS and HEK293T cells; presence of reductants) was “appears to be irreversible”. For the same substance, the “illumination duration giving membrane potential change” value (INS and HEK293T cells; reductants (e.g., ascorbate) present) was no less than 25 s and the “effect on biophysical properties of endogenous ion channels (I-V, steady-state activation)” value (chromaffin cells) was “does not alter the biophysical properties of endogenous ion channels”.
